According to publication PMC5218480 (PLoS ONE, 2017):

System: MV-4-11 cells
Test: Gene expression microarray analysis (Affymetrix PrimeView) and GSEA
Format: cell-based, human
Parameters: RFU PODN (11730768_x_at) / Fold change /veh PODN (11730768_x_at) / RFU LINC00158 (11744669_a_at) / Fold change /veh LINC00158 (11744669_a_at) / RFU DUSP10 (11751237_a_at) / Fold change /veh DUSP10 (11751237_a_at) / RFU ID3 (11757404_x_at) / Fold change /veh ID3 (11757404_x_at) / RFU PLEKHG5 (11737974_s_at) / Fold change /veh PLEKHG5 (11737974_s_at) / RFU LRRC4B (11730491_at) / Fold change /veh LRRC4B (11730491_at) / RFU GIMAP4 (11747438_a_at) / Fold change /veh GIMAP4 (11747438_a_at) / RFU KRT8 (11758183_x_at) / Fold change /veh KRT8 (11758183_x_at) / RFU CNN1 (11734310_a_at) / Fold change /veh CNN1 (11734310_a_at) / RFU VPS37D (11726825_at) / Fold change /veh VPS37D (11726825_at) / RFU C10orf10 (11716522_x_at) / Fold change /veh C10orf10 (11716522_x_at) / RFU KIR2DL2 /// KIR2DL4 /// KIR2DL5A /// KIR2DL5B /// KIR2DS1 /// KIR2DS2 /// KIR2DS3 /// KIR2DS4 /// KIR3DL3 /// KIR3DL3 /// KIR3DS1 (11738374_at) / Fold change /veh KIR2DL2 /// KIR2DL4 /// KIR2DL5A /// KIR2DL5B /// KIR2DS1 /// KIR2DS2 /// KIR2DS3 /// KIR2DS4 /// KIR3DL3 /// KIR3DL3 /// KIR3DS1 (11738374_at) / RFU C1QL1 (11718748_at) / Fold change /veh C1QL1 (11718748_at) / RFU TMPRSS4 (11747572_a_at) / Fold change /veh TMPRSS4 (11747572_a_at) / RFU HAMP (11756126_x_at) / Fold change /veh HAMP (11756126_x_at) / RFU RNFT2 (11725882_a_at) / Fold change /veh RNFT2 (11725882_a_at) / RFU NR4A2 (11747474_a_at) / Fold change /veh NR4A2 (11747474_a_at) / RFU ABCC12 (11746883_a_at) / Fold change /veh ABCC12 (11746883_a_at) / RFU TMEM136 (11760407_x_at) / Fold change /veh TMEM136 (11760407_x_at) / RFU CLDN22 /// WWC2 (11732394_at) / Fold change /veh CLDN22 /// WWC2 (11732394_at) / RFU HLA-DPB1 (11760878_x_at) / Fold change /veh HLA-DPB1 (11760878_x_at) / RFU SPINT1 (11716480_a_at) / Fold change /veh SPINT1 (11716480_a_at) / RFU GAP43 (11754022_s_at) / Fold change /veh GAP43 (11754022_s_at) / RFU A4GNT (11735810_at) / Fold change /veh A4GNT (11735810_at) / RFU PRB3 (11715151_x_at) / Fold change /veh PRB3 (11715151_x_at) / RFU TUBB4B (11761932_at) / Fold change /veh TUBB4B (11761932_at) / RFU CAPN14 (11732068_a_at) / Fold change /veh CAPN14 (11732068_a_at) / RFU TMCC2 (11721928_a_at) / Fold change /veh TMCC2 (11721928_a_at) / RFU IRGQ (11745062_a_at) / Fold change /veh IRGQ (11745062_a_at) / RFU FAM174B (11720279_a_at) / Fold change /veh FAM174B (11720279_a_at) / RFU TMPRSS4 (11748680_a_at) / Fold change /veh TMPRSS4 (11748680_a_at) / RFU FAM212B (11763350_a_at) / Fold change /veh FAM212B (11763350_a_at) / RFU PLEKHG5 (11743358_a_at) / Fold change /veh PLEKHG5 (11743358_a_at) / RFU ZSCAN30 (11745921_a_at) / Fold change /veh ZSCAN30 (11745921_a_at) / RFU CMKLR1 (11741424_a_at) / Fold change /veh CMKLR1 (11741424_a_at) / RFU LOC101060620 /// MAPK8IP1 (11723275_at) / Fold change /veh LOC101060620 /// MAPK8IP1 (11723275_at) / RFU SPTSSB (11747773_x_at) / Fold change /veh SPTSSB (11747773_x_at) / RFU PRSS12 (11739890_at) / Fold change /veh PRSS12 (11739890_at) / RFU BIN1 (11741810_x_at) / Fold change /veh BIN1 (11741810_x_at) / RFU WNT11 (11732464_a_at) / Fold change /veh WNT11 (11732464_a_at) / RFU C10orf10 (11716521_a_at) / Fold change /veh C10orf10 (11716521_a_at) / RFU C5orf56 (11738089_at) / Fold change /veh C5orf56 (11738089_at) / RFU CYB561 (11721691_x_at) / Fold change /veh CYB561 (11721691_x_at) / RFU ANKRD19P (11752326_a_at) / Fold change /veh ANKRD19P (11752326_a_at) / RFU OR2T12 /// OR2T33 /// OR2T8 (11738714_s_at) / Fold change /veh OR2T12 /// OR2T33 /// OR2T8 (11738714_s_at) / RFU VCAN (11748164_a_at) / Fold change /veh VCAN (11748164_a_at) / RFU JSRP1 (11732532_at) / Fold change /veh JSRP1 (11732532_at) / RFU KRTAP10-11 (11738290_x_at) / Fold change /veh KRTAP10-11 (11738290_x_at) / RFU MYO3A (11730013_a_at) / Fold change /veh MYO3A (11730013_a_at) / RFU EBF3 (11725865_a_at) / Fold change /veh EBF3 (11725865_a_at) / RFU CAMK2N1 (11719241_x_at) / Fold change /veh CAMK2N1 (11719241_x_at) / RFU C5orf56 (11738088_a_at) / Fold change /veh C5orf56 (11738088_a_at) / RFU OLFML3 (11715873_a_at) / Fold change /veh OLFML3 (11715873_a_at) / RFU LOC100653217 /// NTM (11731650_a_at) / Fold change /veh LOC100653217 /// NTM (11731650_a_at) / RFU MAPK11 (11762145_a_at) / Fold change /veh MAPK11 (11762145_a_at) / RFU FIZ1 (11724087_x_at) / Fold change /veh FIZ1 (11724087_x_at) / RFU OASL (11726364_x_at) / Fold change /veh OASL (11726364_x_at) / RFU SOX15 (11748057_x_at) / Fold change /veh SOX15 (11748057_x_at) / RFU CD79A (11719716_a_at) / Fold change /veh CD79A (11719716_a_at) / RFU HIST1H1D (11736915_at) / Fold change /veh HIST1H1D (11736915_at) / RFU CASKIN2 (11723855_a_at) / Fold change /veh CASKIN2 (11723855_a_at) / RFU LOC730098 (11760151_x_at) / Fold change /veh LOC730098 (11760151_x_at) / RFU OR4N2 (11742367_at) / Fold change /veh OR4N2 (11742367_at) / RFU PRRT2 (11749266_a_at) / Fold change /veh PRRT2 (11749266_a_at) / RFU SNX32 (11753110_a_at) / Fold change /veh SNX32 (11753110_a_at) / RFU CDHR5 (11726645_a_at) / Fold change /veh CDHR5 (11726645_a_at) / RFU RCAN1 (11760418_a_at) / Fold change /veh RCAN1 (11760418_a_at) / RFU FAM167A (11723789_a_at) / Fold change /veh FAM167A (11723789_a_at) / RFU FAM26E (11764081_at) / Fold change /veh FAM26E (11764081_at) / RFU ISYNA1 (11749810_s_at) / Fold change /veh ISYNA1 (11749810_s_at) / RFU ACY1 (11761880_at) / Fold change /veh ACY1 (11761880_at) / RFU 11764098_at / Fold change /veh 11764098_at / RFU SAMD14 (11745864_x_at) / Fold change /veh SAMD14 (11745864_x_at) / RFU NPB (11741838_a_at) / Fold change /veh NPB (11741838_a_at) / RFU TMPRSS6 (11731388_a_at) / Fold change /veh TMPRSS6 (11731388_a_at) / RFU KRTAP10-2 (11738614_at) / Fold change /veh KRTAP10-2 (11738614_at) / RFU ARHGAP8 /// PRR5-ARHGAP8 (11727945_x_at) / Fold change /veh ARHGAP8 /// PRR5-ARHGAP8 (11727945_x_at) / RFU KRTAP5-7 /// NADSYN1 (11734609_at) / Fold change /veh KRTAP5-7 /// NADSYN1 (11734609_at) / RFU RASL12 (11751679_a_at) / Fold change /veh RASL12 (11751679_a_at) / RFU CDKN2B (11736163_a_at) / Fold change /veh CDKN2B (11736163_a_at) / RFU PRF1 (11729649_at) / Fold change /veh PRF1 (11729649_at) / RFU, ZNF638 /// ZNF638-IT1 / Fold change vs veh, ZNF638 /// ZNF638-IT1 / RFU, PANK3 / Fold change vs veh, PANK3 / RFU, SH3YL1 / Fold change vs veh, SH3YL1 / RFU, ZEB2 / Fold change vs veh, ZEB2 / RFU, NRIP1 / Fold change vs veh, NRIP1 / RFU, PTTG1IP / Fold change vs veh, PTTG1IP / RFU, CAPN2 / Fold change vs veh, CAPN2 / RFU, MED14 / Fold change vs veh, MED14 / RFU, SNORA58 / Fold change vs veh, SNORA58 / RFU, C1orf63 / Fold change vs veh, C1orf63 / RFU, LRRFIP1 / Fold change vs veh, LRRFIP1 / RFU, NDUFAF7 / Fold change vs veh, NDUFAF7 / RFU, SLC12A2 / Fold change vs veh, SLC12A2 / RFU, IBTK / Fold change vs veh, IBTK / RFU, ESF1 / Fold change vs veh, ESF1 / Fold change vs veh, TMEM50B / RFU, TAOK1 / Fold change vs veh, TAOK1 / RFU, ACBD3 / Fold change vs veh, ACBD3 / RFU, TMA16 / Fold change vs veh, TMA16 / RFU, RWDD3 / Fold change vs veh, RWDD3 / RFU, BCAT1 / Fold change vs veh, BCAT1 / RFU, EDEM3 / Fold change vs veh, EDEM3 / RFU, TMEM33 / Fold change vs veh, TMEM33 / RFU, WDR75 / Fold change vs veh, WDR75 / RFU, AHCTF1 / Fold change vs veh, AHCTF1 / RFU, TFRC / Fold change vs veh, TFRC / RFU, ZDHHC17 / Fold change vs veh, ZDHHC17 / RFU, NOM1 / Fold change vs veh, NOM1 / RFU, ARL8B / Fold change vs veh, ARL8B / RFU, ZBTB11 / Fold change vs veh, ZBTB11 / RFU, TAMM41 / Fold change vs veh, TAMM41 / RFU, KIAA1704 /// LOC100996395 / Fold change vs veh, KIAA1704 /// LOC100996395 / RFU, ING1 / Fold change vs veh, ING1 / RFU, TRMT61B / Fold change vs veh, TRMT61B / RFU, FUBP3 / Fold change vs veh, FUBP3 / RFU, TP53 / Fold change vs veh, TP53 / RFU, TNKS2 / Fold change vs veh, TNKS2 / RFU, ZFP14 / Fold change vs veh, ZFP14 / RFU, ACTR2 / Fold change vs veh, ACTR2 / RFU, PPP3R1 / Fold change vs veh, PPP3R1 / RFU, PIK3R1 / Fold change vs veh, PIK3R1 / RFU, HNRNPA1 / Fold change vs veh, HNRNPA1 / RFU, RNF170 / Fold change vs veh, RNF170 / RFU, ZNF28 / Fold change vs veh, ZNF28 / RFU, RNGTT / Fold change vs veh, RNGTT / RFU, OGT / Fold change vs veh, OGT / RFU, BRD1 / Fold change vs veh, BRD1 / RFU, MARS / Fold change vs veh, MARS / RFU, ZNF655 / Fold change vs veh, ZNF655 / RFU, FAHD1 / Fold change vs veh, FAHD1 / RFU, BDP1 / Fold change vs veh, BDP1 / RFU, LRRCC1 / Fold change vs veh, LRRCC1 / RFU, ARID1A / Fold change vs veh, ARID1A / RFU, ZNF146 / Fold change vs veh, ZNF146 / RFU, ZNF330 / Fold change vs veh, ZNF330 / RFU, GPN3 / Fold change vs veh, GPN3 / RFU, C9orf123 / Fold change vs veh, C9orf123 / RFU, N4BP2L2 / Fold change vs veh, N4BP2L2 / RFU, ARFIP1 / Fold change vs veh, ARFIP1 / RFU, FAM179B / Fold change vs veh, FAM179B / RFU, BCL10 / Fold change vs veh, BCL10 / RFU, UHRF1BP1L / Fold change vs veh, UHRF1BP1L / RFU, BET1 / Fold change vs veh, BET1 / RFU, CNOT2 / Fold change vs veh, CNOT2 / RFU, ZNF268 / Fold change vs veh, ZNF268 / Fold change vs veh, ZNF507 / RFU, DGCR2 / Fold change vs veh, DGCR2 / RFU, WDSUB1 / Fold change vs veh, WDSUB1 / Fold change vs veh, HSP90B1 /// MIR3652 / RFU, ADSS / Fold change vs veh, ADSS / RFU, GK / Fold change vs veh, GK / RFU, ZNF148 / Fold change vs veh, ZNF148 / RFU, TAF9 / Fold change vs veh, TAF9 / RFU, SLC1A5 / Fold change vs veh, SLC1A5 / RFU, SLMO2 / Fold change vs veh, SLMO2 / RFU, ABCC4 / Fold change vs veh, ABCC4 / RFU, LOC101060439 /// RAP1B / Fold change vs veh, LOC101060439 /// RAP1B / RFU, RFX7 / Fold change vs veh, RFX7 / RFU, GTPBP10 / Fold change vs veh, GTPBP10 / RFU, CNEP1R1 / Fold change vs veh, CNEP1R1 / RFU, BIVM-ERCC5 /// ERCC5 / Fold change vs veh, BIVM-ERCC5 /// ERCC5 / RFU, ILF3 / Fold change vs veh, ILF3 / RFU 11762660_at / Fold change /veh 11762660_at / RFU VCAN (11757783_s_at) / Fold change /veh VCAN (11757783_s_at) / RFU DDX43 (11728927_at) / Fold change /veh DDX43 (11728927_at) / RFU KRT8 (11758188_x_at) / Fold change /veh KRT8 (11758188_x_at) / RFU NKD1 (11759106_at) / Fold change /veh NKD1 (11759106_at) / RFU SRD5A1 (11742802_a_at) / Fold change /veh SRD5A1 (11742802_a_at) / RFU TPSAB1 /// TPSB2 (11721975_s_at) / Fold change /veh TPSAB1 /// TPSB2 (11721975_s_at) / RFU GSTM3 (11746129_a_at) / Fold change /veh GSTM3 (11746129_a_at) / RFU IL23R (11737362_x_at) / Fold change /veh IL23R (11737362_x_at) / RFU TMEM51 (11727254_a_at) / Fold change /veh TMEM51 (11727254_a_at) / RFU PIWIL2 (11732686_x_at) / Fold change /veh PIWIL2 (11732686_x_at) / RFU ORM1 (11744905_x_at) / Fold change /veh ORM1 (11744905_x_at) / RFU CCDC152 (11743942_at) / Fold change /veh CCDC152 (11743942_at) / RFU ECM1 (11717891_a_at) / Fold change /veh ECM1 (11717891_a_at) / RFU IL23R (11748794_a_at) / Fold change /veh IL23R (11748794_a_at) / RFU TNFAIP8L3 (11732012_x_at) / Fold change /veh TNFAIP8L3 (11732012_x_at) / RFU MBOAT4 (11741988_at) / Fold change /veh MBOAT4 (11741988_at) / RFU 11764193_at / Fold change /veh 11764193_at / RFU TMEM53 (11763286_at) / Fold change /veh TMEM53 (11763286_at) / RFU MAGEB2 (11727129_at) / Fold change /veh MAGEB2 (11727129_at) / RFU TMEM200A (11744735_a_at) / Fold change /veh TMEM200A (11744735_a_at) / RFU CCDC152 (11751479_a_at) / Fold change /veh CCDC152 (11751479_a_at) / RFU FAM211A (11726209_a_at) / Fold change /veh FAM211A (11726209_a_at) / RFU RGS16 (11746705_a_at) / Fold change /veh RGS16 (11746705_a_at) / RFU VCAN (11755009_s_at) / Fold change /veh VCAN (11755009_s_at) / RFU RHOB (11743442_s_at) / Fold change /veh RHOB (11743442_s_at) / RFU RGS16 (11720943_a_at) / Fold change /veh RGS16 (11720943_a_at) / RFU RGS16 (11720944_at) / Fold change /veh RGS16 (11720944_at) / RFU, VPS4B / Fold change vs veh, VPS4B / RFU, CREB1 / Fold change vs veh, CREB1 / RFU, DNAJC13 / Fold change vs veh, DNAJC13 / RFU, GNAQ / Fold change vs veh, GNAQ / RFU, CDK5R1 / Fold change vs veh, CDK5R1 / RFU, ZRANB3 / Fold change vs veh, ZRANB3 / RFU, CUL4A / Fold change vs veh, CUL4A / RFU, CCNY / Fold change vs veh, CCNY / RFU, UFL1 / Fold change vs veh, UFL1 / RFU, COG3 / Fold change vs veh, COG3 / RFU, DIAPH2 / Fold change vs veh, DIAPH2 / RFU, SKA2 / Fold change vs veh, SKA2 / RFU, AFF3 / Fold change vs veh, AFF3 / RFU, LMF1 / Fold change vs veh, LMF1 / RFU, IPO11 / Fold change vs veh, IPO11 / RFU, DFFB / Fold change vs veh, DFFB / RFU, FOXP1 / Fold change vs veh, FOXP1 / RFU, CARD8 / Fold change vs veh, CARD8 / RFU, STRN3 / Fold change vs veh, STRN3 / RFU, ADK / Fold change vs veh, ADK / RFU, RASSF2 / Fold change vs veh, RASSF2 / RFU, WIPF1 / Fold change vs veh, WIPF1 / RFU, LARP1B / Fold change vs veh, LARP1B / RFU, RASA1 / Fold change vs veh, RASA1 / RFU, RB1 / Fold change vs veh, RB1 / RFU, PPFIA1 / Fold change vs veh, PPFIA1 / RFU, MAT2A / Fold change vs veh, MAT2A / RFU, CCT5 / Fold change vs veh, CCT5 / RFU, WDR92 / Fold change vs veh, WDR92 / RFU, CUX1 / Fold change vs veh, CUX1 / RFU, TTC7A / Fold change vs veh, TTC7A / RFU, TMEM135 / Fold change vs veh, TMEM135 / RFU, DEPTOR / Fold change vs veh, DEPTOR / RFU, CPM / Fold change vs veh, CPM / RFU, DNAJB6 / Fold change vs veh, DNAJB6 / RFU, CACNA2D3 / Fold change vs veh, CACNA2D3 / RFU, DTX4 / Fold change vs veh, DTX4 / RFU, TFCP2 / Fold change vs veh, TFCP2 / RFU, GMCL1 /// GMCL1P1 / Fold change vs veh, GMCL1 /// GMCL1P1 / RFU, AEBP2 / Fold change vs veh, AEBP2 / RFU, SNHG1 /// SNORD22 /// SNORD25 /// SNORD26 /// SNORD27 /// SNORD28 /// SNORD29 /// SNORD31 / Fold change vs veh, SNHG1 /// SNORD22 /// SNORD25 /// SNORD26 /// SNORD27 /// SNORD28 /// SNORD29 /// SNORD31 / Fold change (Aza/veh), C12orf56 (ProbeSet 11735607_a_at) / Fold change (ACY-1035/veh), C12orf56 (ProbeSet 11735607_a_at) / Fold change (Aza/veh), FGFR1OP (ProbeSet 11751329_s_at) / Fold change (ACY-1035/veh), FGFR1OP (ProbeSet 11751329_s_at) / Fold change (Aza/veh), VPS36 (ProbeSet 11739960_a_at) / Fold change (ACY-1035/veh), VPS36 (ProbeSet 11739960_a_at) / RFU SYPL1 (11715823_x_at) / Fold change /veh SYPL1 (11715823_x_at) / RFU IGFBP7 (11715501_s_at) / Fold change /veh IGFBP7 (11715501_s_at) / RFU REEP3 (11722064_at) / Fold change /veh REEP3 (11722064_at) / RFU IGLL1 (11728026_x_at) / Fold change /veh IGLL1 (11728026_x_at): dose or concentration left out as unconfirmed
Details: MV-4-11 cells, 48 hours

Nc1ncn([C@@H]2O[C@H](CO)[C@@H](O)[C@H]2O)c(=O)n1 [azacitidine]
RFU DDX43 (11728927_at): 12.02 RFU
